Data reported in US20260217767A1, “NOVEL A4B7 THIOETHER PEPTIDE DIMER ANTAGONISTS” (Protagonist Therapeutics, Inc., priority 2014, published 2026).
pIC50: −log10 of the molar value. Where a SMILES comes first, the peptide text is derived from it.

Assays:
RPMI 8866 cells = molecular target: T1, RPMI 8866 cells (Homo sapiens, UniProt P13612+P26010); test: α4β7-MAdCAM Cell Adhesion Assay; assay type: cell-based; conditions: thioether peptide dimers, Table 7; read-out: Cell-Adhesion A4B7
T1 sequence (P13612 34-1032): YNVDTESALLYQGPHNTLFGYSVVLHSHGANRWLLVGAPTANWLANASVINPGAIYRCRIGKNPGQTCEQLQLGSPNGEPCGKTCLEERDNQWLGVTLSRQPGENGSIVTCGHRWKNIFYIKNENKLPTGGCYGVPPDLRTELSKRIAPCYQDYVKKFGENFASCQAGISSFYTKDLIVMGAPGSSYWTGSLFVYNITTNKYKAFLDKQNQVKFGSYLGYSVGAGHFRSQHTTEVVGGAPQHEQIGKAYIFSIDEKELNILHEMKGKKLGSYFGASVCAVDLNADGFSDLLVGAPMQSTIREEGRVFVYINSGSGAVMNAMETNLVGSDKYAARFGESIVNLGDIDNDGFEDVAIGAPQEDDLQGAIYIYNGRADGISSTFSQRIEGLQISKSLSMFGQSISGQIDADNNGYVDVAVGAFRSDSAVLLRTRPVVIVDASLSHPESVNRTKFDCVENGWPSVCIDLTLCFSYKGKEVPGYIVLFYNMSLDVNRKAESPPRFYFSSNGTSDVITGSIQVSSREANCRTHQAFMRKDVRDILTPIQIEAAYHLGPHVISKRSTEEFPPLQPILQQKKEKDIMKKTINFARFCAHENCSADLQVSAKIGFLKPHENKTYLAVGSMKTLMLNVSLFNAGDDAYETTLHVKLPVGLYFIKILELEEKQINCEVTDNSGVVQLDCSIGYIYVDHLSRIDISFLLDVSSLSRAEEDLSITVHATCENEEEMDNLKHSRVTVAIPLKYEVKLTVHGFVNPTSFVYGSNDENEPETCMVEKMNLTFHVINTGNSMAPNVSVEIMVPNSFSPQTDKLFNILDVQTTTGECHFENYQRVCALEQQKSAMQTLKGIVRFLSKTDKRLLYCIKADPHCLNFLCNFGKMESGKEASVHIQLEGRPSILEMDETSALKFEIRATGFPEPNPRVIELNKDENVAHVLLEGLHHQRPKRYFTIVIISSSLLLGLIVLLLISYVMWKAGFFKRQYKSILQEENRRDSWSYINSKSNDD
T1 sequence (P26010 20-798): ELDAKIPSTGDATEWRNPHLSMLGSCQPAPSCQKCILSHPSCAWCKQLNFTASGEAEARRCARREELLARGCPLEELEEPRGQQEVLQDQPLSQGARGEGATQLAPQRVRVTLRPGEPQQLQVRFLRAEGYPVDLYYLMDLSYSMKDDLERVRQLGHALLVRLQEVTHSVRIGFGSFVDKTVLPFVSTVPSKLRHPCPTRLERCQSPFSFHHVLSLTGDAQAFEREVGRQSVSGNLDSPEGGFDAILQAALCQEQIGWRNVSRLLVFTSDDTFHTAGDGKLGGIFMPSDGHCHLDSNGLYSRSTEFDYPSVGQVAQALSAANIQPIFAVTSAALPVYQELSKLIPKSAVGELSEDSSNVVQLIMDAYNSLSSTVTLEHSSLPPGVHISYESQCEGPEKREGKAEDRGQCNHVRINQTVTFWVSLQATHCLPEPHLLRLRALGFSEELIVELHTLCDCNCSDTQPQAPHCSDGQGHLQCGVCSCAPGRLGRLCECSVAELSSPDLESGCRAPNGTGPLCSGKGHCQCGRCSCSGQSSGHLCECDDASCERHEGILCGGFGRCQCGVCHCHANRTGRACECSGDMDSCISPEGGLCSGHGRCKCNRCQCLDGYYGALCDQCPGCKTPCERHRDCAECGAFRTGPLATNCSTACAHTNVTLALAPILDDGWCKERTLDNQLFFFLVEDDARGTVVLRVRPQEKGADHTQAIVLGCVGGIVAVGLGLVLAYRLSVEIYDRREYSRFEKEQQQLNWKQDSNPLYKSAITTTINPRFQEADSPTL
In short: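 RPMI 8866 cells (200,000/well) in DMEM with 1 mM MnCl2 and 0.1% BSA were allowed to adhere 30-45 min at 37° C to plates coated with rh MAdCAM-1/Fc (200 ng/well) in presence of serially diluted peptide. After washing, bound cells quantified by MTT, absorbance 570 nm, cell-free background subtracted.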

[1] = system: CD4+/CD45RO+ memory T cells; test: PBMC Memory T Cell Adhesion Assay; assay type: cell-based, human; conditions: thioether peptide dimers, Table 7
Procedure: PBMC Memory T Cell Adhesion Assay
Fresh CD4+/CD45RO+ memory T cells were isolated from human peripheral blood mononuclear cell (PBMC) donors by Aragen Bioscience Inc. (Morgan Hill, CA). The assay plate was prepared using IgG Fc capture antibody (donkey anti human) immobilized at 500 ng/well in 50 mM sodium bicarbonate buffer, pH 9.5, ON, 4 C onto a Greiner Fluotrac plate (100 ul per well). The plate was rinsed two time with Blocking Buffer (25 mM Tris HCl, pH7.5, 150 mM NaCl, 1.5% BSA, 0.05% Tween), and blocked with Blocking Buffer for 2 hours at 37 C or 5 hours at RT using 200 ul per well. The Blocking Buffer was removed and either MAdCAM-1 or VCAM-1 at 400 ng/well in Blocking Buffer was added and the plate incubated overnight at 4 C (100 ul per well). The plate was washed two times with Blocking Buffer, and rinsed once with 200 ul Binding Media (DMEM phenol red free, 10 mM HEPES, 1×Na pyruvate, 1× Glutamine, and supplemented with 1 mM MnC12 prior to use). To prepare cells, approximately 25 million CD4+/CD45RO+ memory T cells were counted by trypan blue exclusion using a haemocytometer to determine viability and cell count. The cells were transferred to a 50 ml conical tube, and centrifuged at 1200 rpm for 10 minute. The media was aspirated and the cell pellet resuspended in 15 ml Binding Media. The cells were centrifuged again and resuspended in the appropriate amount of Binding Media to be used for assays (50 ul of cells per well at 2× the final density). To each well, and equal volume (50 ul) of test compound was added and the plate was incubated for 1.5 hours at 37 C, 5% CO2. Each well was rinsed 3× with 150 ul per well of Binding Media. […] The plate was incubated at 37 C, 5% CO2, for 45 minutes. The plate was protected from light by using black adhesive seals. Fluorescence intensity was measured using a Molecular Devices Gemini EM Fluorescent Plate Reader (Ex 485/Em530, Bottom Read, Reading Sensitivity=20). IC50 curves are generated using Graph Pad Prism and the curves analyzed using analyzed using a non-linear regression (four parameters) algorithm. The log (concentration) versus RFU (Ex485/Em530) was plotted to determine IC50 values.

[2] = Dithiothreitol (DTT) Redox Stability Assay; assay type: physicochemical; conditions: 0.5 mM DTT, room temperature; control peptide monomers, Table 8
Procedure: Studies were carried out under redox conditions to evaluate intestinal stability of the peptide molecules of the instant invention.
Dithiothreitol (DTT) Redox Stability Assay
The DTT stability assay was prepared by adding 5 μl of a 10 mM peptide stock solution in DMSO to 1 ml of 100 mM Tris-Cl, pH 7.5 (final peptide concentration is 50 μM). At time 0 min, 5 μl of a freshly thawed 100 mM DTT solution was added such that the final DTT concentration is 0.5 mM. The reactions were incubated at room temperature. At different time points up to 120 minutes, 50 μl aliquots were removed and the reaction was quenched by adding 10 ul of 5M acetic acid. To measure disappearance of the parent peptide, the quenched samples (30 μl) were analyzed by reverse phase HPLC and UV absorbance at 220 nm. Half-lives were calculated by fitting to a first-order exponential decay equation using Excel.

[3] = Simulated Intestinal Fluid (SIF) Stability Assay; assay type: in vitro ADME; conditions: simulated gi fluid, porcine pancreatin
In short: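 Peptide at 22 μM final was incubated at 37° C in blank FaSSIF pH 6.5 with 1% porcine pancreatin. Timed samples were quenched in acetonitrile/methanol/formic acid with internal standard and analysed by LC-MS/MS. Half-lives came from first-order exponential fits of percent remaining.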

[4] = Simulated Gastric Fluid (SGF) Stability Assay; assay type: in vitro ADME; conditions: simulated gi fluid; porcine pepsin, pH 2, 37° C.; dimers, Table 7
Procedure: Simulated Gastric Fluid (SGF) Stability Assays
Studies were carried out in simulated gastric fluid (SGF) to evaluate intestinal stability of the peptide molecules of the instant invention. SGF was prepared by adding 20 mg NaCl, 32 mg porcine pepsin (MP Biochemicals, catalog 02102599), and 70 μl HCl to 10 ml water (final pH=2). Aliquots of SGF (0.5 ml each) were pre-warmed at 37° C. To start the reaction, 1 μl of peptide stock solution (10 mM in DMSO) was added to 0.5 ml SGF and thoroughly mixed such that the final peptide concentration was 20 μM. The reactions were incubated at 37° C. with gentle shaking. At each time point (0, 15, 30, 60 min) 50 μl aliquots were removed and added to 200 μl acetonitrile containing 0.1% formic acid to quench the reaction. Samples are stored at 4° C. until the end of the experiment and centrifuged at 10,000 rpm for 5 minutes. Aliquots of the supernatant were removed, diluted 1:1 into distilled water containing internal standard, and analyzed by LCMS/MS. Percent remaining at each timepoint was calculated based on the peak area response ratio of test to compound to internal standard. Time 0 was set to 100%, and all later timepoints were calculated relative to time 0. Half-lives were calculated by fitting to a first-order exponential decay equation using GraphPad.

[5] = control peptide monomers, Table 8

## CC(C)C[C@@H]1NC(=O)[C@H]([C@@H](C)O)NC(=O)[C@H](CC(=O)O)NC(=O)[C@H](CO)NC(=O)[C@H](CCCNC(=N)N)N(C)C(=O)c2ccccc2CSC(C)(C)[C@@H](C(=O)N[C@@H](Cc2ccc(C(C)(C)C)cc2)C(=O)N[C@@H](CCC(=O)O)CC(=O)N[C@H](CCCCN)C(N)=O)NC1=O [compound 222]
RPMI 8866 cells
  pIC50: > 7.60
[1]
  pIC50: > 7.60

## CC(=O)N[C@H]1CSSC[C@@H](C(N)=O)NC(=O)[C@H](CC(C)C)NC(=O)[C@H]([C@@H](C)O)NC(=O)[C@H](CC(=O)O)NC(=O)[C@H](CO)NC(=O)[C@H](CCCNC(=N)N)NC1=O [compound 386] (HELM PEPTIDE1{[ac].C.R.S.D.T.L.C.[am]}$PEPTIDE1,PEPTIDE1,2:R3-8:R3$$$V2.0; bridges inferred)
[2]
  Redox stability (DTT): ~3 min
[3]; [5]
  half-life: < 0.0167 h

## CC(C)C[C@@H]1NC(=O)[C@H]([C@@H](C)O)NC(=O)[C@H](CC(=O)O)NC(=O)[C@H](CO)NC(=O)[C@H](CCCNC(=N)N)N(C)C(=O)c2ccccc2CSC(C)(C)[C@@H](C(=O)N[C@@H](Cc2ccccc2)C(=O)N[C@H](CCC(=O)O)C(=O)N[C@H](CCCCN)C(N)=O)NC1=O [compound 155] (HELM PEPTIDE1{[meR].S.D.T.L.[Pen].F.[dE].[dK].[am]}|CHEM1{[O=C(c1ccccc1C[*:2])[*:1]]}$PEPTIDE1,CHEM1,1:R1-1:R1|PEPTIDE1,CHEM1,6:R3-1:R2$$$V2.0)
[4]
  half-life: > 3 h
[3]; 37° C., dimers, Table 7
  half-life: > 3 h
[1]
  pIC50: 7.00 to 7.60

## CC(=O)N[C@H]1CSSC[C@@H](C(=O)NCC(=O)N[C@@H](CCC(=O)O)C(N)=O)NC(=O)[C@H](CC(C)C)NC(=O)[C@H]([C@@H](C)O)NC(=O)[C@H](CC(=O)O)NC(=O)[C@H](CO)NC(=O)[C@H](CCCNC(=N)N)NC1=O [compound 385] (HELM PEPTIDE1{[ac].C.R.S.D.T.L.C.G.E.[am]}$PEPTIDE1,PEPTIDE1,2:R3-8:R3$$$V2.0; bridges inferred)
[2]
  Redox stability (DTT): ~3 min
[3]; [5]
  half-life: < 0.0167 h
